Among the data in patent US10654834B2 (Venenum Biodesign, LLC, priority 2016, dated 2020) are EC50 values, retold here.

The pEC50 is −log10 of the EC50, conventionally taken in molar units.

pEC50: −log10 of the molar value.

The target in one experiment is T1, mouse TGR5 receptor (Mus musculus, UniProt Q80SS6).
T1 construct: host or cells: HEK293-EBNA (293 c18, ATCC CRL10852)
T1 sequence (Q80SS6 1-329): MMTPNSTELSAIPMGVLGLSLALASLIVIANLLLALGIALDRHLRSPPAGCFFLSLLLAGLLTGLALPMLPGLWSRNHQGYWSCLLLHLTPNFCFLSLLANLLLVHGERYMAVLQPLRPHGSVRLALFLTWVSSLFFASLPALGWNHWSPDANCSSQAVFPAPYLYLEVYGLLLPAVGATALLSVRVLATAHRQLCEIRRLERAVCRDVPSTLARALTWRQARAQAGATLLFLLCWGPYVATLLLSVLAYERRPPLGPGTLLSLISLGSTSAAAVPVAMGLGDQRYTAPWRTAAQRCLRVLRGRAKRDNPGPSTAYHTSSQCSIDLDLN
Nature of the experiment: Mouse TGR5 HTRF cAMP production assay (HEK293-EBNA cells, Cisbio cAMP HiRange kit). In kind it is cell-based. The following applies: HEK293-EBNA cells overexpressing mouse TGR5, HTRF cAMP assay. The method, boiled down:
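cAMP accumulation was read by competitive HTRF after 1 h room-temperature compound treatment, with a further 1 h conjugate incubation. Cells were mouse TGR5-overexpressing HEK293-EBNA in serum-free DMEM plus 500 μM IBMX. Compounds ran as 12-point half-log series in duplicate, and EC50 values were reported.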
On the technique in general: Time-resolved FRET reads energy transfer from a long-lived donor to a nearby acceptor.

A further experiment deals with T2, human TGR5 receptor (Homo sapiens, UniProt Q8TDU6).
T2 construct: host or cells: CHO-K1 (hTGR5-CHO)
T2 sequence (Q8TDU6 1-330): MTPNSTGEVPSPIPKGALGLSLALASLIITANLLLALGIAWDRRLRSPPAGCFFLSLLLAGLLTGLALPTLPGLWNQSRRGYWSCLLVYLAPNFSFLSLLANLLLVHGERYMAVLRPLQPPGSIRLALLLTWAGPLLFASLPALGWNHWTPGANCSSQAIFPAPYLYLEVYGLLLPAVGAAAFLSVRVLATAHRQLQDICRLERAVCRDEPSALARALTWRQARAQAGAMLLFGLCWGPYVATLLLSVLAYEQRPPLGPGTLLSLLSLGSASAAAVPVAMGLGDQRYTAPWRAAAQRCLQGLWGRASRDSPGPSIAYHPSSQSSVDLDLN
Nature of the experiment: Human TGR5 cAMP production assay (hTGR5-CHO cells, DiscoveRx cAMP XS+ kit). The experiment is classed as cell-based. Particulars: luminescent cAMP assay, read-out: Human TGR5 Lum. cAMP Activity (EC50). The method in brief: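 EC50 values come from luminescent enzyme-complementation cAMP detection, read after overnight incubation. Beforehand, hTGR5-expressing CHO-K1 cells with IBMX and anti-cAMP antibody were exposed 1 h at room temperature to serially diluted (half-log) compounds.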

`N#Cc1ccc(CCNC(=O)[C@@H]2CCCN2c2cc(N3CCC(CCCC(=O)N[C@@H](CCC(=O)O)C(=O)O)CC3)nc(C(F)(F)F)n2)cc1` [Compound 76, (S)-2-(4-(1-(6-((S)-2-((4-cyanophenethyl)carbamoyl)pyrrolidin-1-yl)-2-(trifluoromethyl)pyrimidin-4-yl)piperidin-4-yl)butanamido)-pentanedioic acid]: the negative-log EC50 (pEC50) at mouse TGR5 receptor and at human TGR5 receptor was greater than 7.00 in each case.

In the case of `CS(=O)(=O)NCCNC(=O)CCCC1CCN(c2cc(N3CCC[C@H]3C(=O)NCCc3ccc(C(F)(F)F)cc3)nc(C(F)(F)F)n2)CC1` [Compound 91, (S)-1-(6-(4-(4-((2-(methylsulfonamido)ethyl)amino)-4-oxobutyl)piperidin-1-yl)-2-(trifluoromethyl)pyrimidin-4-yl)-N-(4-(trifluoromethyl)phenethyl)pyrrolidine-2-carboxamide], the pEC50 at mouse TGR5 receptor and at human TGR5 receptor was greater than 7.00 in each case.

As for `N#Cc1ccc(CCNC(=O)[C@@H]2CCCN2c2cc(N3CCC(CCCC(=O)NCCNc4cc(C(=O)O)ncn4)CC3)nc(C(F)(F)F)n2)cc1` [Compound 101, (S)-6-((2-(4-(1-(6-(2-((4-cyanophenethyl)carbamoyl)pyrrolidin-1-yl)-2-(trifluoromethyl)pyrimidin-4-yl)piperidin-4-yl)butanamido)ethyl)amino)-pyrimidine-4-carboxylic acid], the pEC50 at mouse TGR5 receptor and on human TGR5 receptor was greater than 7.00 in each case.

In the case of `N#Cc1ccc(CCNC(=O)[C@@H]2CCCN2c2cc(N3CCC(CCCC(=O)N[C@@H](CCCNC(=N)N)C(=O)O)CC3)nc(C(F)(F)F)n2)cc1` [Compound 72, (S)-2-(4-(1-(6-((S)-2-((4-cyanophenethyl)carbamoyl)pyrrolidin-1-yl)-2-(trifluoromethyl)pyrimidin-4-yl)piperidin-4-yl)butanamido)-5-guanidinopentanoic acid], the pEC50 on mouse TGR5 receptor and on human TGR5 receptor was greater than 7.00 in each case.

Consider `N#Cc1ccc(CCNC(=O)[C@@H]2CCCN2c2cc(N3CCC(CCCC(=O)NCP(=O)(O)O)CC3)nc(C(F)(F)F)n2)cc1` [Compound 64, (S)-((4-(1-(6-(2-((4-cyanophenethyl)carbamoyl)pyrrolidin-1-yl)-2-(trifluoromethyl)pyrimidin-4-yl)piperidin-4-yl)butanamido)methyl)-phosphonic acid], for which the pEC50 at mouse TGR5 receptor and on human TGR5 receptor was greater than 7.00 throughout.

`N#Cc1ccc(CCNC(=O)[C@@H]2CCCN2c2cc(N3CCC(CCNC(=O)NCCS(=O)(=O)O)CC3)nc(C(F)(F)F)n2)cc1` [Compound 78, (S)-2-(3-(2-(1-(6-(2-((4-cyanophenethyl)carbamoyl)pyrrolidin-1-yl)-2-(trifluoromethyl)pyrimidin-4-yl)piperidin-4-yl)ethyl)ureido)ethanesulfonic acid]: the negative logarithm of the EC50 (pEC50) at mouse TGR5 receptor and on human TGR5 receptor was greater than 7.00 each time.

As to `N#Cc1ccc(CCNC(=O)[C@@H]2CCCN2c2cc(N3CCC(CCCC(=O)NCS(=O)(=O)O)CC3)nc(C(F)(F)F)n2)cc1` [Compound 66, (S)-(4-(1-(6-(2-((4-cyanophenethyl)carbamoyl)pyrrolidin-1-yl)-2-(trifluoromethyl)pyrimidin-4-yl)piperidin-4-yl)butanamido)-methanesulfonic acid], the negative-log EC50 (pEC50) at mouse TGR5 receptor and at human TGR5 receptor was greater than 7.00 in each case.

Consider `N#Cc1ccc(CCNC(=O)[C@@H]2CCCN2c2cc(N3CCC(CCNC(=O)NCCS(N)(=O)=O)CC3)nc(C(F)(F)F)n2)cc1` [Compound 80, (S)-N-(4-cyanophenethyl)-1-(6-(4-(2-(3-(2-sulfamoylethyl)ureido)-ethyl)piperidin-1-yl)-2-(trifluoromethyl)pyrimidin-4-yl)pyrrolidine-2-carboxamide], for which the pEC50 on mouse TGR5 receptor and on human TGR5 receptor was greater than 7.00 in each case.

For the compound `O=C(NCCC1CCN(c2cc(N3CCC[C@H]3C(=O)NCCc3ccc(C(F)(F)F)cc3)nc(C(F)(F)F)n2)CC1)NCCS(=O)(=O)O` [Compound 86, (S)-2-(3-(2-(1-(2-(trifluoromethyl)-6-(2-((4-(trifluoromethyl)phenethyl)-carbamoyl)pyrrolidin-1-yl)pyrimidin-4-yl)piperidin-4-yl)ethyl)ureido)-ethanesulfonic acid], the negative-log EC50 (pEC50) at mouse TGR5 receptor and on human TGR5 receptor was greater than 7.00 throughout.

With `N#Cc1ccc(CCNC(=O)[C@@H]2CCCN2c2cc(N3CCC(CCCC(=O)NCC(N)=O)CC3)nc(C(F)(F)F)n2)cc1` [Compound 68, (S)-1-(6-(4-(4-((2-amino-2-oxoethyl)amino)-4-oxobutyl)piperidin-1-yl)-2-(trifluoromethyl)pyrimidin-4-yl)-N-(4-cyanophenethyl)pyrrolidine-2-carboxamide], the negative-log EC50 (pEC50) at mouse TGR5 receptor and at human TGR5 receptor was greater than 7.00 throughout.

As to `O=C(CCCC1CCN(c2cc(N3CCC[C@H]3C(=O)NCCc3ccc(C(F)(F)F)cc3)nc(C(F)(F)F)n2)CC1)NCCNc1ncnc2c1ncn2[C@@H]1O[C@H](CO)C(O)C1O` (stereo partly drawn) [Compound 96, (2S)-1-(6-(4-(4-((2-((9-((2R,5R)-3,4-dihydroxy-5-(hydroxymethyl)-tetrahydrofuran-2-yl)-9H-purin-6-yl)amino)ethyl)amino)-4-oxobutyl)piperidin-1-yl)-2-(trifluoromethyl)-pyrimidin-4-yl)-N-(4-(trifluoromethyl)-phenethyl)-pyrrolidine-2-carboxamide], the negative logarithm of the EC50 (pEC50) at mouse TGR5 receptor and on human TGR5 receptor was greater than 7.00 throughout.

In the case of `N#Cc1ccc(CCNC(=O)[C@@H]2CCCN2c2cc(N3CCC(CCNC(=O)NCCC(=O)O)CC3)nc(C(F)(F)F)n2)cc1` [Compound 81, (S)-3-(3-(2-(1-(6-(2-((4-cyanophenethyl)carbamoyl)pyrrolidin-1-yl)-2-(trifluoromethyl)pyrimidin-4-yl)piperidin-4-yl)ethyl)ureido)-propanoic acid], the pEC50 on mouse TGR5 receptor and on human TGR5 receptor was greater than 7.00 throughout.

On to `N#Cc1ccc(CCNC(=O)[C@@H]2CCCN2c2cc(N3CCC(COCC(=O)O)CC3)nc(C(F)(F)F)n2)cc1` [Compound 88, (S)-2-((1-(6-(2-((4-cyanophenethyl)carbamoyl)pyrrolidin-1-yl)-2-(trifluoromethyl)pyrimidin-4-yl)piperidin-4-yl)methoxy)acetic acid], for which the negative-log EC50 (pEC50) at mouse TGR5 receptor is greater than 7.00; on human TGR5 receptor, 6.00 to 7.00.

As for `N#Cc1ccc(CCNC(=O)[C@@H]2CCCN2c2cc(N3CCC(CO)CC3)nc(C(F)(F)F)n2)cc1` [Compound 1, (S)—N-(4-cyanophenethyl)-1-(6-(4-(hydroxymethyl)piperidin-1-yl)-2-(trifluoromethyl)pyrimidin-4-yl)pyrrolidine-2-carboxamide], at human TGR5 receptor, the pEC50 is greater than 7.00.

With `CS(=O)(=O)NCCNC(=O)CCCC1CCN(c2cc(N3CCC[C@H]3C(=O)NCCc3ccc(C#N)cc3)nc(C(F)(F)F)n2)CC1` [Compound 93], the negative logarithm of the EC50 (pEC50) at mouse TGR5 receptor and at human TGR5 receptor was greater than 7.00 each time.
